{"source": "patent US7432050B2", "about": "“Methods and compositions for detecting colon cancers” (Case Western Reserve University, priority 2001, dated 2008)", "tested_on": "HLTF expression", "assay": "RT-PCR assay for HLTF expression reactivation after 5-azacytidine treatment", "format": "cell-based, human", "protocol": "The cultures were grown and treated as described previously (Veigl, et al., 1998, Proc. Natl. Acad. Sci. USA, 95:8698-8702). The optimal tolerated doses were determined for each treated line, and two doses were used for some lines, ranging from 1 μg/ml to 3 μg/ml.\nTo establish that methylation was responsible for silencing HLTF gene expression, cell lines with HLTF DNA methylation were treated with 5-azacytidine (5-azaC), a demethylating agent.", "note": "Entries after “also recorded” stand apart in the source; their conditions may differ.", "data": [{"smiles": "Nc1ncn([C@@H]2O[C@H](CO)[C@@H](O)[C@H]2O)c(=O)n1", "note": "[5-azaC, 5-azacytidine]", "values": [{"measurement": "reactivation of HLTF expression", "setting": "colon cancer cell lines with HLTF DNA methylation (RCA, V457, SW480, V5, V6, V432), 1 μg/ml to 3 μg/ml", "result": "reactivates HLTF expression; also recorded: reactivated HLTF expression in all these cell lines"}, {"measurement": "change of HLTF expression in control cell lines", "setting": "control cell lines with constitutive HLTF expression and unmethylated HLTF DNA (V429, V503)", "result": "did not further increase HLTF expression"}]}]}
